Experimental data as given in PMC4414309, “Target Modulation by a Kinase Inhibitor Engineered to Induce a Tandem Blockade of the Epidermal Growth Factor Receptor (EGFR) and c-Src: The Concept of Type III Combi-Targeting” (PLoS ONE, 2015).

Tested on: NIH3T3 wild type cells
Assay: Growth inhibition, sulforhodamine B (SRB) assay, NIH3T3 wild type
Conditions: Mus musculus, NIH3T3, 120 h, read-out: IC50 growth inhibition NIH3T3 – Wt
Description: Growth inhibition was measured in cells using the sulforhodamine B (SRB) assay [48]. […] The plates were subsequently rinsed with 1% acetic acid, and allowed to dry overnight. […] The results were analyzed using GraphPad Prism 6.0 (GraphPadSoftware, Inc., San Diego, CA) and the sigmoidal dose response curve was used to determine IC50 values. Each experiment was carried out at least four times, in triplicate.

For `Cc1nc(Nc2ncc(C(=O)Nc3c(C)cccc3Cl)s2)cc(N2CCN(CCOC(=O)CCC(=O)OCCN(C)Cc3ccc(C(=O)Nc4ccc5ncnc(Nc6cccc(Cl)c6)c5c4)cc3)CC2)n1` [AL776], the IC50 was 7.6 ± 3 µM.
